Reference: the supplement of paper PMC10307832

Legend:
Assay in all cases: relative viability (nuclei count vs DMSO), 5 days (fraction); higher = more cells survive
AZ505 + AZD7762 = compound: C1CCC(CC1)N(CCNCCC2=C3C(=C(C=C2)O)NC(=O)CO3)C(=O)CCNCCC4=CC(=C(C=C4)Cl)Cl [AZ505] + NC(=O)Nc1cc(-c2cccc(F)c2)sc1C(=O)N[C@H]1CCCNC1 [AZD7762] (partner 0.2 µM)
How it was run: (§1)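 Nuclei were stained with Hoechst during a one-step fixation (final 0.05% Triton X-100, 1% formaldehyde, 1 ug/ml Hoechst) carried out 5 days after dosing, then counted on 4× images. The cells, lung cancer lines in 1536-well plates, had been dosed by pin tool the day after seeding with one drug alone or a fixed anchor-drug dose plus five library-drug doses (not always all listed) in √10 steps. Relative viability is the nuclei count in treated wells divided by that in vehicle wells, and each value is the median of duplicate plates.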

AZ505 + Pemetrexed = compound: C1CCC(CC1)N(CCNCCC2=C3C(=C(C=C2)O)NC(=O)CO3)C(=O)CCNCCC4=CC(=C(C=C4)Cl)Cl [AZ505] + Nc1nc2[nH]cc(CCc3ccc(C(=O)N[C@@H](CCC(=O)O)C(=O)O)cc3)c2c(=O)[nH]1 [Pemetrexed] (partner 0.2 µM)
How it was run: as §1

Dactolisib + Phenformin = compound: Cn1c(=O)n(-c2ccc(C(C)(C)C#N)cc2)c2c3cc(-c4cnc5ccccc5c4)ccc3ncc21 [Dactolisib] + N=C(N)NC(=N)NCCc1ccccc1 [Phenformin] (partner 250 µM)
How it was run: as §1

AZ505 + Tozasertib = compound: C1CCC(CC1)N(CCNCCC2=C3C(=C(C=C2)O)NC(=O)CO3)C(=O)CCNCCC4=CC(=C(C=C4)Cl)Cl [AZ505] + Cc1cc(Nc2cc(N3CCN(C)CC3)nc(Sc3ccc(NC(=O)C4CC4)cc3)n2)n[nH]1 [Tozasertib] (partner 0.1 µM)
How it was run: as §1

Cell Line | relative viability (AZ505 + AZD7762; first compound 0.08 µM) | relative viability (AZ505 + AZD7762; first compound 0.8 µM) | relative viability (AZ505 + AZD7762; first compound 2.53 µM) | relative viability (AZ505 + AZD7762; first compound 8 µM) | relative viability (AZ505 + Pemetrexed; first compound 0.08 µM) | relative viability (AZ505 + Pemetrexed; first compound 0.8 µM) | relative viability (AZ505 + Pemetrexed; first compound 2.53 µM) | relative viability (AZ505 + Pemetrexed; first compound 8 µM) | relative viability (Dactolisib + Phenformin; first compound 0.002 µM) | relative viability (Dactolisib + Phenformin; first compound 0.006325 µM) | relative viability (Dactolisib + Phenformin; first compound 0.02 µM) | relative viability (Dactolisib + Phenformin; first compound 0.06325 µM) | relative viability (Dactolisib + Phenformin; first compound 0.2 µM) | relative viability (AZ505 + Tozasertib; first compound 0.08 µM) | relative viability (AZ505 + Tozasertib; first compound 0.253 µM) | relative viability (AZ505 + Tozasertib; first compound 0.8 µM) | relative viability (AZ505 + Tozasertib; first compound 2.53 µM) | relative viability (AZ505 + Tozasertib; first compound 8 µM) | relative viability (AZ505 + AZD7762; first compound 0.253 µM) | relative viability (AZ505 + Pemetrexed; first compound 0.253 µM)
NCI-H2405 | 0.45 | 0.605 | 0.605 | 0.665 | 0.715 | 0.841 | 0.882 | 0.97 | 0.403 | 0.379 | 0.374 | 0.269 | 0.256 | 0.508 | 0.594 | 0.45 | 0.516 | 0.503 | – | –
NCI-H3122 | 0.923 | 1 | 0.974 | 1.03 | 0.196 | 0.196 | 0.201 | 0.199 | 0.381 | 0.385 | 0.416 | 0.378 | 0.317 | 0.381 | 0.401 | 0.436 | 0.355 | 0.411 | 1.01 | 0.197
PC-3 [JPC-3] | 0.784 | 0.843 | 0.873 | 1.06 | 0.97 | 1.18 | 1.09 | 1.27 | 0.494 | 0.485 | 0.475 | 0.47 | 0.469 | 0.83 | 0.919 | 0.87 | 0.848 | 0.867 | – | –
PC-14 | 0.366 | 0.391 | 0.354 | 0.372 | 0.122 | 0.127 | 0.146 | 0.166 | 0.642 | 0.523 | 0.45 | 0.29 | 0.144 | 0.549 | 0.594 | 0.586 | 0.509 | 0.554 | 0.317 | 0.138
RERF-LC-KJ | 0.95 | 0.923 | 0.98 | 0.909 | 0.448 | 0.505 | 0.449 | 0.434 | 0.42 | 0.415 | 0.428 | 0.298 | 0.302 | 0.432 | 0.432 | 0.467 | 0.459 | 0.388 | 0.964 | 0.454
SW 900 | 0.576 | 0.611 | 0.569 | 0.75 | 0.495 | 0.494 | 0.498 | 0.511 | 0.67 | 0.536 | 0.591 | 0.288 | 0.198 | 0.439 | 0.665 | 0.713 | 0.614 | 0.544 | 0.295 | 0.516
